According to patent US9023844B2, “Heterocyclylpyri (mi) dinylpyrazole as fungicidals” (Bayer Intellectual Property GmbH, priority 2011, dated 2015):
Like-named read-outs stand apart in the source and are kept apart here.

Tests used:
[1] = Determination of log P values by HPLC on a reverse phase column (C18), EEC-Directive 79/831 Annex V.A8 (Methods A, B, C); format: physicochemical; settings: for chromatographic logP: reverse phase C18 HPLC column
Method: (§1) Note on the determination of the log P values and mass detection: The stated log P values were determined in accordance with EEC-Directive 79/831 Annex V.A8 by HPLC (High Performance Liquid Chromatography) on a reverse phase column (C18). Agilent 1100 LC system; 50*4.6 Zorbax Eclipse Plus C18 1.8 micron; eluent A: acetonitrile (0.1% formic acid); eluent B: water (0.09% formic acid); linear gradient from 10% acetonitrile to 95% acetonitrile in 4.25 mins, then 95% acetonitrile for a further 1.25 mins; oven temperature 55° C.; flow rate: 2.0 mL/min. The mass detection was effected with an Agilend MSD system.
as §1, with “HP1100;” for “Agilent 1100 LC system;”, “(0.08%” for “(0.09%”, “5%” for “10%”, “1.70 min,” for “4.25 mins,”, “1.00 min;” for “1.25 mins;”, “the Micronass ZQ2000 mass detector from Waters.” for “an Agilend MSD system.”
Note on the determination of the log P values and mass detection: The stated log P values were determined in accordance with EEC-Directive 79/831 Annex V.A8 by UPLC (Ultra Performance Liquid Chromatography) on a reverse phase column (C18). HP1100; 50*2.1 Zorbax Eclipse Plus C18 1.8 micron; eluent A: acetonitrile (0.09% formic acid); eluent B: water (0.1% formic acid); linear gradient from 10% A to 95% A in 3.25 min; oven temperature 40° C.; flow rate: 0.8 mL/min. The mass detection was effected with the LCT Premier or SQD mass detector from Waters.

[2] = tested on: Uromyces appendiculatus; assay: Example B: Uromyces test (beans) / preventive; format: in vivo; settings: in vivo
[3] = tested on: Puccinia recondita; assay: Example E: Puccinia test (wheat) / preventive; format: in vivo; settings: in vivo
[4] = tested on: Pyricularia oryzae; format: in vivo
[5] = tested on: Leptosphaeria nodorum; assay: Example C: Leptosphaeria test (wheat) / preventive; format: in vivo; settings: in vivo
[6] = tested on: Sphaerotheca fuliginea; assay: Example A: Sphaerotheca test (cucumber) / preventive; format: in vivo
[7] = tested on: Pyrenophora teres; assay: Example D: Pyrenophora test (barley) / preventive; format: in vivo
[8] = tested on: Fusarium graminearum; assay: microbe, parasite or virus in culture; format: cell-based; settings: for Growth inhibition of Fusarium graminearum in %: at 50 μM
[9] = tested on: DON/Acetyl-DON production by Fusarium graminearum; assay: microbe, parasite or virus in culture; format: cell-based; settings: at 50 μM
[10] = Method B (HPLC, reverse phase C18)
[11] = Method C (HPLC, reverse phase C18), read-out: LogP
[12] = pH 2.7, values in the synthesis examples, HPLC, reverse phase C18, read-out: log P (pH 2.7)
[13] = 500 ppm of active ingredient, barley, preventive spray, evaluated 7-9 days after inoculation
[14] = Method C (HPLC, reverse phase C18)

Structure (SMILES) | LogP [1, 10] | efficacy [2] | efficacy [3] | efficacy ([4]; in vivo) | efficacy [5] | efficacy ([6]; in vivo) | efficacy ([7]; in vivo) | other results
O=C(Nc1cc(-c2c(-c3ccccc3)nn3c2OCCC3)ccn1)C1CC1 [Example 7] | 1.25 | 94% | 100% | 94% | 90% | 95% | 95% | –
O=C(CCc1ccccc1)Nc1cc(-c2c(-c3ccccc3)nn3c2OCCC3)ccn1 [Example 15] | 2.04 | 83% | 95% | 94% | – | – | 95% | –
CSCC(=O)Nc1cc(-c2c(-c3ccccc3)nn3c2OCCC3)ccn1 [Example 16] | 1.54 | 92% | 95% | 94% | – | 93% | 95% | –
CC(C(=O)Nc1cc(-c2c(-c3ccccc3)nn3c2OCCC3)ccn1)c1ccc(F)cc1 (stereo not drawn) [Example 18] | 2.27 | 94% | 95% | 94% | 90% | 93% | 95% | –
CC(C)=CCC(=O)Nc1cc(-c2c(-c3ccccc3)nn3c2OCCC3)ccn1 [Example 19] | 1.91 | 92% | 95% | 94% | – | 90% | 95% | –
CC(C)(C)CC(=O)Nc1cc(-c2c(-c3ccccc3)nn3c2OCCC3)ccn1 [Example 20] | 1.88 | 97% | 100% | 94% | 95% | 100% | 95% | –
O=C(Nc1cc(-c2c(-c3ccccc3)nn3c2OCCC3)ccn1)C1(Cl)CC1 [Example 21] | 2.62 | – | 89% | 89% | 70% | 93% | 100% | –
CCOC(=O)Nc1cc(-c2c(-c3ccc(F)cc3)nn3c2OCCC3)ccn1 [Example 23] | 1.66 | 94% | 95% | 94% | – | – | 95% | –
C[C@H](O)C(=O)Nc1cc(-c2c(-c3ccc(F)cc3)nn3c2OCCC3)ccn1 [Example 26] | 1.31 | 72% | 100% | 94% | 70% | – | 100% | –
O=C(CCc1ccccc1)Nc1cc(-c2c(-c3ccc(F)cc3)nn3c2OCCC3)ccn1 [Example 29] | 2.2 | 94% | 95% | 94% | – | – | 70% | –
CSCC(=O)Nc1cc(-c2c(-c3ccc(F)cc3)nn3c2OCCC3)ccn1 [Example 30] | 1.72 | – | 100% | 94% | 70% | 98% | 95% | –
CC(C(=O)Nc1cc(-c2c(-c3ccc(F)cc3)nn3c2OCCC3)ccn1)c1ccc(F)cc1 (stereo not drawn) [Example 32] | 2.48 | 92% | 100% | 94% | – | – | 90% | –
CC(C)=CCC(=O)Nc1cc(-c2c(-c3ccc(F)cc3)nn3c2OCCC3)ccn1 [Example 33] | 2.07 | 89% | 100% | 94% | – | – | 90% | –
CCOC(=O)Nc1cc(-c2c(-c3ccc(F)cc3F)nn3c2OCCC3)ccn1 [Example 38] | 1.72 | 89% | 90% | 94% | – | – | 95% | –
C[C@H](O)C(=O)Nc1cc(-c2c(-c3ccc(F)cc3F)nn3c2OCCC3)ccn1 [Example 41] | 1.34 | 94% | 95% | 94% | – | – | 90% | –
O=C(CC1CC1)Nc1cc(-c2c(-c3ccc(F)cc3F)nn3c2OCCC3)ccn1 [Example 42] | 1.72 | 94% | 95% | 94% | 70% | – | 100% | –

Structure (SMILES) | LogP [1, 10] | efficacy [2] | efficacy [3] | efficacy ([4]; in vivo) | efficacy [5] | efficacy ([6]; in vivo) | efficacy ([7]; in vivo) | other results
O=C(CCc1ccccc1)Nc1cc(-c2c(-c3ccc(F)cc3F)nn3c2OCCC3)ccn1 [Example 44] | 2.23 | 94% | 95% | 78% | – | – | – | –
CC(C(=O)Nc1cc(-c2c(-c3ccc(F)cc3F)nn3c2OCCC3)ccn1)c1ccc(F)cc1 (stereo not drawn) [Example 47] | 2.48 | 92% | 95% | 89% | – | – | 80% | –
CC(C)=CCC(=O)Nc1cc(-c2c(-c3ccc(F)cc3F)nn3c2OCCC3)ccn1 [Example 48] | 2.1 | 86% | 95% | 78% | – | – | 70% | –
CC(C)(C)CC(=O)Nc1cc(-c2c(-c3ccc(F)cc3F)nn3c2OCCC3)ccn1 [Example 49] | 2.1 | 94% | 95% | 94% | 90% | 93% | 95% | –
CC(=O)Nc1cc(-c2c(-c3ccccc3)nn3cccnc23)ccn1 [Example 51, N-[4-(2-phenylpyrazolo[1,5-a]pyrimidin-3-yl)pyridin-2-yl]acetamide] | – | – | – | – | – | – | – | chromatographic logP [1, 11]: 1.41; chromatographic logP [1, 12]: 1.41; inhibition at 50 µM ([8]; Fusarium graminearum, read-out: Growth inhibition of Fusarium graminearum in %): 90%; inhibition at 50 µM ([9]; Fusarium graminearum, read-out: Inhibition of DON/AcDON in %): 100%
CC(=O)N(C(C)=O)c1cc(-c2c(-c3ccccc3)nn3cccnc23)ccn1 [Example 56, N-Acetyl-N-[4-(2-phenylpyrazolo[1,5-a]pyrimidin-3-yl)pyridin-2-yl]acetamide] | – | – | – | – | – | – | – | chromatographic logP [1, 11]: 2.13; chromatographic logP [1, 12]: 2.13; efficacy ([6]; 500 ppm of active ingredient, cucumber, preventive spray, evaluated 7 days after inoculation): 80%; efficacy [7, 13]: 95%
CC(=O)Nc1cc(-c2c(-c3ccc(F)cc3)nn3c2NCCC3)ccn1 [Example 59, N-{4-[2-(4-Fluorophenyl)-4,5,6,7-tetrahydropyrazolo[1,5-a]pyrimidin-3-yl]pyridin-2-yl}acetamide] | – | – | – | – | – | – | – | chromatographic logP [1, 11]: 1.48; chromatographic logP [1, 12]: 1.48; efficacy ([4]; 500 ppm of active ingredient, rice, preventive spray, evaluated 7 days after inoculation): 70%; efficacy [7, 13]: 80%
O=C(Nc1cc(-c2c(-c3ccc(F)cc3)nn3c2OCCC3)ccn1)C(=O)N1CCCCC1 [Example 70] | 2.23 | – | – | – | – | – | – | Growth inhibition of Fusarium graminearum in % [8]: 76%; Inhibition of DON/AcDON in % [9]: 90%
CCC(=O)Nc1cc(-c2c(-c3ccc(F)cc3)nn3c2NCCC3)ccn1 [Example 80] | – | 78% | – | 90% | – | 93% | 100% | LogP [1, 14]: 1.35; Inhibition of DON/AcDON in % [9]: 100%
CC(=O)N(C(C)=O)c1cc(-c2c(-c3ccc(F)cc3)nn3cccnc23)ccn1 [Example 83] | – | – | – | – | – | 90% | 80% | LogP [1, 14]: 2.22
O=C(Nc1cc(-c2c(-c3ccc(F)cc3)nn3cccnc23)ccn1)C1CC1 [Example 88] | – | – | – | 90% | – | 93% | 95% | LogP [1, 14]: 1.75; Growth inhibition of Fusarium graminearum in % [8]: 55%; Inhibition of DON/AcDON in % [9]: 70%
CC(C)C(=O)N(C(=O)C(C)C)c1cc(-c2c(-c3ccccc3)nn3c2NCCC3)ccn1 [Example 92] | – | 78% | 78% | – | – | 100% | – | LogP [1, 14]: 3.08; Inhibition of DON/AcDON in % [9]: 99%
CC(=O)Nc1cc(-c2c(-c3ccsc3)nn3c2OC[Si](C)(C)C3)ccn1 [Example 96] | – | – | – | 70% | – | – | 95% | LogP [1, 14]: 1.62
CCC(=O)Nc1cc(-c2c(-c3ccsc3)nn3c2OC[Si](C)(C)C3)ccn1 [Example 100] | – | – | – | 70% | 80% | – | 95% | LogP [1, 14]: 1.88
C[Si]1(C)COc2c(-c3ccnc(NC(=O)C4CC4)c3)c(-c3ccsc3)nn2C1 [Example 102] | – | – | – | 70% | 80% | – | 100% | LogP [1, 14]: 1.97
